Earlier results on two compounds are cited in patent US20230131859A1, “BIOCONVERSION OF OLEUROPEIN” (SOCIETE DES PROUITS NESTLES S.A., priority 2017, published 2023).

The conditions of series [1]: in vivo.
The conditions of series [2]: compared with hydroxytyrosol.

As to `CC=C1C(O)OC=C(C(=O)OC)C1CC(=O)OCCc1ccc(O)c(O)c1` (centres unmarked) [oleuropein aglycone, 3,4-dihydroxyphenylethanol-elenolic acid], the “clearance from the plasma” value in series [1] is “slower clearance from the plasma compared with hydroxytyrosol and oleuropein”. Take hydroxytyrosol acetate: in series [2], the “solubility in the lipophilic phases” value was “more soluble in the lipophilic phases than hydroxytyrosol”.
